What was measured:
rhinovirus B14 = assay: Antiviral activity against Human rhinovirus 14 infected in human H1-HeLa cells incubated for 3 days measured by crystal violet staining based plaque counting analysis; conditions: Rhinovirus B, 72 h
rhinovirus A16 = assay: Antiviral activity against Human rhinovirus 16 infected in human H1-HeLa cells incubated for 3 days measured by crystal violet staining based plaque counting analysis; conditions: Rhinovirus A, 72 h
rhinovirus A21 = assay: Antiviral activity against Human rhinovirus A21 infected in human H1-HeLa cells incubated for 3 days measured by crystal violet staining based plaque counting analysis; conditions: Rhinovirus A, 72 h
[1] = Selectivity index, ratio of CC50 for cytotoxicity against human H1-HeLa cells infected with 1 MOI human rhinovirus 14 to EC50 for antiviral activity against Human rhinovirus 14 infected in human H1-HeLa cells; format: toxicity, cell-based; conditions: H1-HeLa cells infected with human rhinovirus 14, read-out: Ratio CC50/EC50
[2] = Selectivity index, ratio of CC50 for cytotoxicity against human H1-HeLa cells infected with 1 MOI human rhinovirus 16 to EC50 for antiviral activity against Human rhinovirus 16 infected in human H1-HeLa cells; format: toxicity, cell-based; conditions: H1-HeLa cells infected with human rhinovirus 16, read-out: Ratio CC50/EC50
[3] = Selectivity index, ratio of CC50 for cytotoxicity against human H1-HeLa cells infected with 1 MOI human rhinovirus 21 to EC50 for antiviral activity against Human rhinovirus 21 infected in human H1-HeLa cells; format: toxicity, cell-based; conditions: H1-HeLa cells infected with human rhinovirus 21, read-out: Ratio CC50/EC50
H1-HeLa = assay: cells; conditions: Homo sapiens, 1 h

Compound: CC(=O)Nc1nc(C)c(-c2ccc(Cl)c(S(=O)(=O)NCCO)c2)s1
- EC50 (rhinovirus B14): 770 nM
- EC50 (rhinovirus A16): 840 nM
- EC50 (rhinovirus A21): 1600 nM
- selectivity ratio [1]: 21
- selectivity ratio [2]: 19
- selectivity ratio [3]: 10
- CC50 (H1-HeLa): 15800 nM

Compound: CCOC(=O)/C=C/[C@H](C[C@@H]1CCNC1=O)NC(=O)[C@@H](CC(=O)[C@@H](NC(=O)c1cc(C)on1)C(C)C)Cc1ccc(F)cc1
- EC50 (rhinovirus B14): 58 nM
- EC50 (rhinovirus A16): 80 nM
- EC50 (rhinovirus A21): 95 nM
- CC50 (H1-HeLa): > 100000 nM

Compound: COCCNS(=O)(=O)c1cc(-c2sc(NC(=O)C(C)(C)C)nc2C)ccc1OC
- EC50 (rhinovirus B14): 1300 nM
- EC50 (rhinovirus A16): 790 nM
- EC50 (rhinovirus A21): 1500 nM
- selectivity ratio [1]: > 15
- selectivity ratio [2]: > 25
- selectivity ratio [3]: > 13
- CC50 (H1-HeLa): > 20000 nM

Compound: COc1ccc(-c2sc(NC(=O)C(C)(C)C)nc2C)cc1S(=O)(=O)NCCNC(C)=O
- EC50 (rhinovirus B14): 4400 nM
- EC50 (rhinovirus A16): 3300 nM
- EC50 (rhinovirus A21): 9100 nM
- selectivity ratio [1]: > 5
- selectivity ratio [2]: > 6
- selectivity ratio [3]: > 2
- CC50 (H1-HeLa): > 20000 nM

Compound: COc1ccc(-c2sc(NC(C)=O)nc2C)cc1S(=O)(=O)CCN1CCOCC1
- EC50 (rhinovirus B14): 1400 nM
- EC50 (rhinovirus A16): 1300 nM
- EC50 (rhinovirus A21): 3200 nM
- selectivity ratio [1]: > 14
- selectivity ratio [2]: > 15
- selectivity ratio [3]: > 6
- CC50 (H1-HeLa): > 20000 nM

Compound: COc1ccc(-c2sc(NC(=O)C(C)(C)C)nc2C)cc1S(=O)(=O)CCc1ccncc1
- EC50 (rhinovirus B14): 1300 nM
- EC50 (rhinovirus A16): 1000 nM
- EC50 (rhinovirus A21): 1700 nM
- selectivity ratio [1]: > 10
- selectivity ratio [2]: > 13
- selectivity ratio [3]: > 7
- CC50 (H1-HeLa): 12500 nM

Compound: COc1ccc(-c2sc(NC(=O)C(C)(C)C)nc2C)cc1S(=O)(=O)NCc1cccc(S(C)(=O)=O)c1
- EC50 (rhinovirus B14): 3800 nM
- EC50 (rhinovirus A16): 2000 nM
- EC50 (rhinovirus A21): 4500 nM
- selectivity ratio [1]: > 5
- selectivity ratio [2]: > 10
- selectivity ratio [3]: > 4
- CC50 (H1-HeLa): > 20000 nM

Compound: COc1ccc(-c2sc(NC(=O)C(C)(C)C)nc2C)cc1S(=O)(=O)NCCN1CCOCC1
- EC50 (rhinovirus B14): 1000 nM
- EC50 (rhinovirus A16): 560 nM
- EC50 (rhinovirus A21): 1800 nM
- selectivity ratio [1]: > 20
- selectivity ratio [2]: > 36
- selectivity ratio [3]: > 11
- CC50 (H1-HeLa): > 20000 nM

Compound: COc1ccc(-c2sc(NC(C)=O)nc2C)cc1
- EC50 (rhinovirus B14): 14500 nM
- EC50 (rhinovirus A16): 12000 nM
- EC50 (rhinovirus A21): 17700 nM
- selectivity ratio [1]: > 1
- selectivity ratio [2]: > 2
- selectivity ratio [3]: > 1
- CC50 (H1-HeLa): > 20000 nM

— ChEMBL document CHEMBL5376018 (RSC Med Chem, 2024)
